Several values for one entry are separate records, joined by “and”; a condition that tells them apart may be missing. Equal entries are not always repeated.
Tested on: 958667-338-R-J2-PDC tumor spheroids viability
Assay: Anticancer human tumor 958667-338-R-J2-PDC patient-derived colon adenocarcinoma cell line growth inhibition [PI3K]
Details: spheroids with HUVEC and MSC; for viability, T/C: stronger effect = lower value
Method in brief: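 Complex 3D spheroids (cancer cells + endothelial HUVEC + mesenchymal stem cells); drug pairs of targeted agent x inavolisib/alpelisib/duvelisib/copanlisib; half-log series from ~Cmax, max 10 microM if Cmax unknown; endpoint viability.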

[1] = curve of first compound, second compound 0.0316 µM
[2] = curve of first compound, second compound 0.1 µM
[3] = curve of first compound, second compound 0.316 µM
[4] = curve of first compound, second compound 1 µM
[5] = second compound 0.0316 µM, first compound 0.0316 µM
[6] = second compound 0.0316 µM, first compound 0.1 µM
[7] = second compound 0.0316 µM, first compound 0.316 µM
[8] = second compound 0.0316 µM, first compound 1 µM
[9] = second compound 0.1 µM, first compound 0.0316 µM
[10] = second compound 0.1 µM, first compound 0.1 µM
[11] = second compound 0.1 µM, first compound 0.316 µM
[12] = second compound 0.1 µM, first compound 1 µM
[13] = second compound 0.316 µM, first compound 0.0316 µM
[14] = second compound 0.316 µM, first compound 0.1 µM
[15] = second compound 0.316 µM, first compound 0.316 µM
[16] = second compound 0.316 µM, first compound 1 µM
[17] = second compound 1 µM, first compound 0.0316 µM
[18] = second compound 1 µM, first compound 0.1 µM
[19] = second compound 1 µM, first compound 0.316 µM
[20] = second compound 1 µM, first compound 1 µM
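Also: spheroids exposed to compounds for seven days before readout.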

For `CCN1CCN(Cc2ccc(Nc3ncc(F)c(-c4cc(F)c5nc(C)n(C(C)C)c5c4)n3)nc2)CC1` + Cc1nc(NC(=O)N2CCCC2C(N)=O)sc1-c1ccnc(C(C)(C)C(F)(F)F)c1, the IC50 [1] was over 1000 nM, the IC50 [2] was over 1000 nM and the IC50 [3] was over 1000 nM. It also gave an IC50 [4] of 684 nM, an IC50 (curve of first compound, second compound 3.16 µM) of 29.4 nM and an IC50 (curve of first compound, second compound 10 µM) of 30.5 nM. For the same compound, the viability, T/C (second compound 0.0316 µM, first compound 0.00316 µM) was 96.6%, the viability, T/C (second compound 0.0316 µM, first compound 0.01 µM) was 108% and the viability, T/C [5] was 93.5%. It also gave a viability, T/C [6] of 81.5%, a viability, T/C [7] of 64.7% and a viability, T/C [8] of 73.9%. It also gave a viability, T/C (second compound 0.1 µM, first compound 0.00316 µM) of 97.6%, a viability, T/C (second compound 0.1 µM, first compound 0.01 µM) of 112% and a viability, T/C [9] of 85%. It also gave a viability, T/C [10] of 77.1%, a viability, T/C [11] of 86.1% and a viability, T/C [12] of 70.4%. For the same compound, the viability, T/C (second compound 0.316 µM, first compound 0.00316 µM) was 85.5%, the viability, T/C (second compound 0.316 µM, first compound 0.01 µM) was 86% and the viability, T/C [13] was 79.7%. The viability, T/C [14] was 84.6%, the viability, T/C [15] was 68% and the viability, T/C [16] was 61.8%. For the same compound, the viability, T/C (second compound 1 µM, first compound 0.00316 µM) was 94.5%, the viability, T/C (second compound 1 µM, first compound 0.01 µM) was 67.4% and the viability, T/C [17] was 72.8%. The viability, T/C [18] was 59.7%, the viability, T/C [19] was 57.4% and the viability, T/C [20] was 45.5%. For the same compound, the viability, T/C (second compound 3.16 µM, first compound 0.00316 µM) was 66.4%, the viability, T/C (second compound 3.16 µM, first compound 0.01 µM) was 86.1% and the viability, T/C (second compound 3.16 µM, first compound 0.0316 µM) was 48.1%. For the same compound, the viability, T/C (second compound 3.16 µM, first compound 0.1 µM) was 47.1%, the viability, T/C (second compound 3.16 µM, first compound 0.316 µM) was 47.9% and the viability, T/C (second compound 3.16 µM, first compound 1 µM) was 35.8%. For the same compound, the viability, T/C (second compound 10 µM, first compound 0.00316 µM) was 54.2%, the viability, T/C (second compound 10 µM, first compound 0.01 µM) was 60.8% and the viability, T/C (second compound 10 µM, first compound 0.0316 µM) was 44.7%. For the same compound, the viability, T/C (second compound 10 µM, first compound 0.1 µM) was 46.5%, the viability, T/C (second compound 10 µM, first compound 0.316 µM) was 36.5% and the viability, T/C (second compound 10 µM, first compound 1 µM) was 31.3%.
`CC1(C)CCC(CN2CCN(c3ccc(C(=O)NS(=O)(=O)c4ccc(NCC5CCOCC5)c([N+](=O)[O-])c4)c(Oc4cnc5[nH]ccc5c4)c3)CC2)=C(c2ccc(Cl)cc2)C1` + CC(Nc1ccc2c(c1)OCCn1cc(N3C(=O)OCC3C(F)F)nc1-2)C(N)=O gave an IC50 (curve of first compound, second compound 0.00316 µM) of over 10000 nM, an IC50 (curve of first compound, second compound 0.01 µM) of 9010 nM and an IC50 [1] of 7320 nM. For the same compound, the IC50 [2] was 6410 nM, the IC50 [3] was 4700 nM and the IC50 [4] was over 10000 nM. For the same compound, the viability, T/C (second compound 0.00316 µM, first compound 0.0316 µM) was 92.8%, the viability, T/C (second compound 0.00316 µM, first compound 0.1 µM) was 116% and the viability, T/C (second compound 0.00316 µM, first compound 0.316 µM) was 95.6%. For the same compound, the viability, T/C (second compound 0.00316 µM, first compound 1 µM) was 111%, the viability, T/C (second compound 0.00316 µM, first compound 3.16 µM) was 102% and the viability, T/C (second compound 0.00316 µM, first compound 10 µM) was 69.5%. The viability, T/C (second compound 0.01 µM, first compound 0.0316 µM) was 91.6%, the viability, T/C (second compound 0.01 µM, first compound 0.1 µM) was 89.3% and the viability, T/C (second compound 0.01 µM, first compound 0.316 µM) was 91.2%. It also gave a viability, T/C (second compound 0.01 µM, first compound 1 µM) of 87.3%, a viability, T/C (second compound 0.01 µM, first compound 3.16 µM) of 86.3% and a viability, T/C (second compound 0.01 µM, first compound 10 µM) of 46.4%. For the same compound, the viability, T/C [5] was 84.2%, the viability, T/C [6] was 118% and the viability, T/C [7] was 86%. It also gave a viability, T/C [8] of 97.9%, a viability, T/C (second compound 0.0316 µM, first compound 3.16 µM) of 86.9% and a viability, T/C (second compound 0.0316 µM, first compound 10 µM) of 36.1%. For the same compound, the viability, T/C [9] was 72%, the viability, T/C [10] was 79.7% and the viability, T/C [11] was 74.3%. The viability, T/C [12] was 77.4%, the viability, T/C (second compound 0.1 µM, first compound 3.16 µM) was 96.6% and the viability, T/C (second compound 0.1 µM, first compound 10 µM) was 31%. It also gave a viability, T/C [13] of 71.7%, a viability, T/C [14] of 59.5% and a viability, T/C [15] of 67.5%. The viability, T/C [16] was 71.8%, the viability, T/C (second compound 0.316 µM, first compound 3.16 µM) was 70.1% and the viability, T/C (second compound 0.316 µM, first compound 10 µM) was 15.5%. The viability, T/C [17] was 49%, the viability, T/C [18] was 60.7% and the viability, T/C [19] was 63%. The viability, T/C [20] was 63.4%, the viability, T/C (second compound 1 µM, first compound 3.16 µM) was 60.7% and the viability, T/C (second compound 1 µM, first compound 10 µM) was 35.5%.
In the case of `CC(C)n1nc(-c2ccc3oc(N)nc3c2)c2c(N)ncnc21`, the viability, T/C (compound 0.000316 µM) is reported as 93.8% [middle of 4 runs], the viability, T/C (compound 0.001 µM) is reported as 97.1% [middle of 4 runs] and the viability, T/C (compound 0.01 µM) is reported as 94.7% [middle of 4 runs]. The viability, T/C (compound 0.0316 µM) was 72.6% [middle of 4 runs], the viability, T/C (compound 0.1 µM) was 44.5% [middle of 4 runs] and the IC50 (curve of compound) was 80.6 nM [middle of 4 runs].
`CCN1CCN(Cc2ccc(Nc3ncc(F)c(-c4cc(F)c5nc(C)n(C(C)C)c5c4)n3)nc2)CC1` was tested, and the viability, T/C (compound 0.00316 µM) was 108% and 102% and 109%, the viability, T/C (compound 0.01 µM) was 86.7% and 90.8% and 95.2% and the viability, T/C (compound 0.0316 µM) was 91% and 87.5% and 98.1%. For the same compound, the viability, T/C (compound 0.1 µM) was 72.1% and 75.9% and 98.9%, the viability, T/C (compound 0.316 µM) was 78.8% and 76.1% and 79.7% and the viability, T/C (compound 1 µM) was 74.5% and 70.1% and 72.5%. For the same compound, the IC50 (curve of compound) was over 1000 nM.
For `CCCS(=O)(=O)Nc1ccc(F)c(C(=O)c2c[nH]c3ncc(-c4ccc(Cl)cc4)cc23)c1F`, the viability, T/C (compound 0.1 µM) was 94.2% and 87.7% and 113% (2×), the viability, T/C (compound 0.316 µM) was 107% [middle of 4 runs] and the viability, T/C (compound 1 µM) was 114% [middle of 4 runs]. The viability, T/C (compound 3.16 µM) was 116% [middle of 4 runs], the viability, T/C (compound 10 µM) was 10.9% [middle of 4 runs] and the IC50 (curve of compound) was 6.27 µM [middle of 4 runs].

From PubChem BioAssay AID1963963 (Molecular Pharmacology Branch, DTP, NCI, 2024)
